# Assay results as given in PMC2902569 (Nature biotechnology, 2010).
# Biological target: T1, Met30 (Saccharomyces cerevisiae, UniProt P39014)
# T1 sequence (P39014 1-640): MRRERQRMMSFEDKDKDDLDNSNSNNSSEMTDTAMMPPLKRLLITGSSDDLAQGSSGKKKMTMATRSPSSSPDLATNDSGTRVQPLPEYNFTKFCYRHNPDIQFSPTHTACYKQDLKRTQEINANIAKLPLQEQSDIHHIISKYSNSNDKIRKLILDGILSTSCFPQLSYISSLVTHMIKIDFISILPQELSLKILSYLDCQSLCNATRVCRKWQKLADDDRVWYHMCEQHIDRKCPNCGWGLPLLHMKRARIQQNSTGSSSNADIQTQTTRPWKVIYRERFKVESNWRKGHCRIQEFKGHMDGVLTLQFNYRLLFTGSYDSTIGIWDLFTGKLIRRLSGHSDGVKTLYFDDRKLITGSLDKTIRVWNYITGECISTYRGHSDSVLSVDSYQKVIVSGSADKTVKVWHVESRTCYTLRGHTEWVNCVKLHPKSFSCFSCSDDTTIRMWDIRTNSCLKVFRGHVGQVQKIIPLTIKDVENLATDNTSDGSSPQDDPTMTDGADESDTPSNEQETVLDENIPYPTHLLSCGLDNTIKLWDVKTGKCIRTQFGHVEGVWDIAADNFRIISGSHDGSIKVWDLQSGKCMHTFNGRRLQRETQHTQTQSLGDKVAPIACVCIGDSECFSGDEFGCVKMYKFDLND
# Assay: DARTS, thermolysin or subtilisin protection, immunoblot
# Format: biochemical
# Conditions: yeast lysate (Skp1 present); also in vitro translated Met30
smiles,measurement,value
O=C1c2ccccc2-c2nc3nonc3nc21 [SMER3],"DARTS, thermolysin or subtilisin protection, immunoblot",we observed SMER3-dependent protection of Met30
